In paper PMC7717600, “Novel [(N-alkyl-3-indolylmethylene)hydrazono]oxindoles arrest cell cycle and induce cell apoptosis by inhibiting CDK2 and Bcl-2: synthesis, biological evaluation and in silico studies” (Journal of Enzyme Inhibition and Medicinal Chemistry, 2020):
Where two headings read alike, the source gives them in different places.

Key:
UACC-257 = details: UACC-257; listed as D - 795311 / 1
BT-549 = details: for TGI: BT-549
SNB-75 = details: for TGI: SNB-75
RPMI-8226 = details: for TGI: RPMI-8226
SF-539 = details: for TGI: SF-539
IGROV1 = details: for TGI: IGROV1
OVCAR-5 = details: for TGI: OVCAR-5
OVCAR-3 = details: for TGI: OVCAR-3
COLO 205 = test: NCI SRB screening; assay type: cell-based, human
NCI-H322M = test: NCI SRB screening
KM12 = details: for TGI: KM12
PC-3 = test: NCI SRB screening; assay type: cell-based, human
K-562 = details: for TGI: K-562
MCF7 = details: for TGI: MCF7
HT29 = details: for TGI: HT29
[1] = SK-OV-3, listed as D - 795311 / 1

**Q.** What does the source list for `CCCn1cc(C=NN=C2C(=O)Nc3ccc(C)cc32)c2ccccc21` [Compound 8a]?
**A.** TGI (UACC-257): 6.66E-5 Molar; TGI (BT-549): 6.33 µM; GI % (BT-549; BT-549, 10 μM): 37%; Growth Percent (BT-549; BT-549, 1.00E-5 Molar): 63.53%; TGI (BT-549; listed as D - 795311 / 1): 6.33E-6 Molar; TGI (SNB-75): 46.0 µM; GI % (SNB-75; SNB-75, 10 μM): 15%; Growth Percent (SNB-75; SNB-75, 1.00E-5 Molar): 85.63%; TGI (SNB-75; listed as D - 795311 / 1): 4.60E-5 Molar; TGI (ACHN): >100 µM; GI % (ACHN; 10 μM): 45%; Growth Percent (ACHN; 1.00E-5 Molar): 55.74%; TGI (ACHN; listed as D - 795311 / 1): > 1.00E-4 Molar; TGI (RPMI-8226): 3.96 µM; GI % (RPMI-8226; RPMI-8226, 10 μM): 125%; Growth Percent (RPMI-8226; RPMI-8226, 1.00E-5 Molar): -24.86%; TGI (RPMI-8226; listed as D - 795311 / 1): 3.96E-6 Molar; TGI (SF-539): 17.1 µM; GI % (SF-539; SF-539, 10 μM): 66%; Growth Percent (SF-539; SF-539, 1.00E-5 Molar): 33.94%; TGI (SF-539; listed as D - 795311 / 1): 1.71E-5 Molar; TGI (IGROV1): 63.10 µM; GI % (IGROV1; IGROV1, 10 μM): 61%; Growth Percent (IGROV1; IGROV1, 1.00E-5 Molar): 39.38%; TGI (IGROV1; listed as D - 795311 / 1): 6.31E-5 Molar; TGI (CCRF-CEM): >100 µM; GI % (CCRF-CEM; 10 μM): 101%; Growth Percent (CCRF-CEM; 1.00E-5 Molar): -0.65%; TGI (CCRF-CEM; listed as D - 795311 / 1): > 1.00E-4 Molar; TGI (OVCAR-5): 25.8 µM; GI % (OVCAR-5; OVCAR-5, 10 μM): 16%; Growth Percent (OVCAR-5; OVCAR-5, 1.00E-5 Molar): 84.60%; TGI (OVCAR-5; listed as D - 795311 / 1): 2.58E-5 Molar; TGI (OVCAR-3): 5.11 µM; GI % (OVCAR-3; OVCAR-3, 10 μM): 98%; Growth Percent (OVCAR-3; OVCAR-3, 1.00E-5 Molar): 2.10%; TGI (OVCAR-3; listed as D - 795311 / 1): 5.11E-6 Molar; TGI (COLO 205; COLO 205): 3.06 µM; GI % (COLO 205; COLO 205, 10 μM): 116%; Growth Percent (COLO 205; COLO 205, 1.00E-5 Molar): -16.20%; TGI (COLO 205; COLO 205, listed as D - 795311 / 1): 3.06E-6 Molar; GI50 (COLO 205; Homo sapiens, COLO 205): 1.25 µM; TGI (HL-60(TB); HL60(TB)): 4.80 µM; TGI (HL-60(TB); HL-60(TB)): 4.80E-6 Molar; GI % (HL-60(TB); HL-60(TB), 10 μM): 123%; Growth Percent (HL-60(TB); HL-60(TB), 1.00E-5 Molar): -22.61%; TGI (NCI-H322M): >100 µM; GI % (NCI-H322M; 10 μM): 53%; Growth Percent (NCI-H322M; 1.00E-5 Molar): 47.76%; GI50 (NCI-H322M; Homo sapiens): 3.42 µM; CC50 (NCI-H322M; Homo sapiens, read-out: LC50): > 100 µM; TGI (NCI-H322M; listed as D - 795311 / 1): > 1.00E-4 Molar; TGI (KM12): 19.7 µM; GI % (KM12; KM12, 10 μM): 40%; Growth Percent (KM12; KM12, 1.00E-5 Molar): 59.92%; TGI (KM12; listed as D - 795311 / 1): 1.97E-5 Molar; GI50 (PC-3; Homo sapiens, PC-3): 1.83 µM; TGI (PC-3; PC-3): 5.17 µM; GI % (PC-3; PC-3, 10 μM): 82%; Growth Percent (PC-3; PC-3, 1.00E-5 Molar): 17.96%; TGI (PC-3; PC-3, listed as D - 795311 / 1): 5.17E-6 Molar; TGI (K-562): 20.5 µM; GI % (K-562; K-562, 10 μM): 83%; Growth Percent (K-562; K-562, 1.00E-5 Molar): 17.61%; TGI (K-562; listed as D - 795311 / 1): 2.05E-5 Molar; TGI (MCF7): 15.50 µM; GI % (MCF7; MCF7, 10 μM): 91%; Growth Percent (MCF7; MCF7, 1.00E-5 Molar): 8.92%; TGI (MCF7; listed as D - 795311 / 1): 1.55E-5 Molar; GI50 (SR): 0.52 µM; TGI (SR): 8.72 µM; GI % (SR; 10 μM): 89%; Growth Percent (SR; 1.00E-5 Molar): 11.60%; TGI (SR; listed as D - 795311 / 1): 8.72E-6 Molar; TGI (HT29): >100 µM; GI % (HT29; HT29, 10 μM): 83%; Growth Percent (HT29; HT29, 1.00E-5 Molar): 17.08%; TGI (HT29; listed as D - 795311 / 1): > 1.00E-4 Molar; TGI (SK-OV-3; SK-OV-3): 67.10 µM; GI % (SK-OV-3; SK-OV-3, 10 μM): 12%; Growth Percent (SK-OV-3; SK-OV-3, 1.00E-5 Molar): 88.36%; GI50 (SK-OV-3; [1]): 11.7 µM; TGI (SK-OV-3; [1]): 6.71E-5 Molar; TGI (SN12C): 75.90 µM; GI % (SN12C; 10 μM): 51%; Growth Percent (SN12C; 1.00E-5 Molar): 49.93%; TGI (SN12C; listed as D - 795311 / 1): 7.59E-5 Molar
